Patent US12611387B2, “Compound and composition for inducing neuroprotection” (REST THERAPEUTICS, priority 2020, dated 2026)

What was measured:
GFAP = test: Immunohistochemical quantification of GFAP (astrogliosis); format: in vivo, mice; conditions: 0.3 mg/Kg i.p.
Procedure: The neuroprotective effect of the compounds, i.e. the ability thereof to protect cells from Aβ25-35 oligomer neurotoxicity and neurodegeneration, is also tested (FIG. 10). The test compounds are thus administered on the same day as the injection of the Aβ25-35 oligomers and are continued to be administered on a daily basis up to day 7 after the injection of the oligomers, at which time the mice are subjected to the YMT, PAT, MWT or ORT. The brain's anatomy is analysed and neuronal cells are counted by immunohistochemistry on mice sacrificed at D13. The biochemical analyses for the quantification of markers of oxidative stress and apoptosis were carried out at D16 on a group of mice that had been subjected to the WMT (FIG. 10).
They were previously anaesthetised by i.p. injection of 200 μL of a solution of ketamine (80 mg/Kg) and xylazine (10 mg/Kg), then the tissues were fixed by intracardiac perfusion of 50 mL of a saline solution followed by 50 mL of Antigenfix® fixative (Diapath). The samples were kept for a further 48 hours in the fixative at 4° C., and then the mouse brains were stored in a 30% sucrose solution in PBS, before being sliced.
Slices were taken of each area of the brain, in particular the cortex, the nucleus basalis magnocellularis and the hippocampus (i.e. between bregma +1.8 and bregma −2.8 according to the stereotaxic coordinates of the mouse brain, Paxinos et al., 2004). Serial coronal sections with a thickness of 25 μm were cut with a freezing microtome (Microm HM 450, Thermo Fisher) and stored at −20° C. in a cryoprotective solution. […]
Immunohistochemical labelling is carried out in a conventional manner. […] After rinsing with PBS, the sections were mounted in a mounting fluid (ProLong, ThermoFischer) and images of each section were taken with a confocal fluorescence microscope (Leica SPE) for different sub-regions of the hippocampus such as the stratum radiatum (Rad), the stratum moleculare (Mol), the polymorphic layer of the dentate gyrus (PoDG) and for the cortex, the lateral parietal association area (LPtA). […]

[1] = system: Aβ25-35 oligomer-intoxicated mice; test: Y-maze test, symptomatic treatment; format: in vivo; conditions: doses 0.1; 0.3; 1.0; 3 and 10 mg/Kg i.p., symptomatic design
Procedure: The test compounds were tested for their ability to decrease the cognitive symptoms of Aβ25-35 oligomer-induced neurodegeneration, i.e. their ability to provide symptomatic anti-amnestic treatment (FIGS. 1A and 1B). In brief, to test the symptomatic effect of the test compounds, they were administered 8 days after the icy injection of the Aβ25-35 oligomers, 30 minutes before the YMT and PAT memory tests were conducted or 30 minutes before the test, but after the training session, in the case of the MWT or ORT (FIG. 1A). […]
The spontaneous alternation test was used to assess spatial working memory (very short-term memory) in rodents. […] The mouse's entries into each arm, including the arm at whose end it was placed, are recorded. […] The number of maximum alternations is thus the total number of entries into each arm minus 2 and the percentage of alternation was calculated according to the formula: % Alt=number of actual alternations/maximum number of alterations×100
The parameters measured included the percentage of alternations (memory index) and the total number of entries into the arms of the maze (exploration index, Maurice et al., 1994, 1996; Meunier et al., 2006, 2013; Villard et al., 2009, 2011). […]

Compound | GFAP labelling (astrocytic response) (GFAP; all brain areas tested (Rad, Mol, PoDG, LPtA)) | restoring Alt % in the Y-maze test, effective doses [1] | GFAP labelling (astrogliosis) (GFAP; Mol) | GFAP labelling (astrocytic response) (GFAP; PoDG area)
NC12CC3CC(C1)CC(CCF)(C3)C2 [FENM, 3-(2-fluoroethyl)adamantan-1-amine] | significantly decreases the astrocytic and microglial response in all of the brain areas tested | effective at all doses tested from 0.1 mg/Kg |  | 
CC12CC3CC(C)(C1)CC(N)(C3)C2 [memantine, 3,5-Dimethyl-1-adamantanamine, reference compound] |  | only effective at 0.3 mg/Kg | no effect on astrogliosis in the Mol | positive effect in the PoDG area
